Experimental data: ChEMBL document CHEMBL2163275, “The lipogenesis pathway as a cancer target” (J Med Chem, 2011)
Values belong to the compound of their own block, whether it stands above or below them.

Experiments:
ATP-citrate synthase [1] = molecular target: T1, ATP-citrate synthase (Homo sapiens, UniProt P53396); assay: Inhibition of human recombinant ACLY
T1 sequence (P53396 whole entry): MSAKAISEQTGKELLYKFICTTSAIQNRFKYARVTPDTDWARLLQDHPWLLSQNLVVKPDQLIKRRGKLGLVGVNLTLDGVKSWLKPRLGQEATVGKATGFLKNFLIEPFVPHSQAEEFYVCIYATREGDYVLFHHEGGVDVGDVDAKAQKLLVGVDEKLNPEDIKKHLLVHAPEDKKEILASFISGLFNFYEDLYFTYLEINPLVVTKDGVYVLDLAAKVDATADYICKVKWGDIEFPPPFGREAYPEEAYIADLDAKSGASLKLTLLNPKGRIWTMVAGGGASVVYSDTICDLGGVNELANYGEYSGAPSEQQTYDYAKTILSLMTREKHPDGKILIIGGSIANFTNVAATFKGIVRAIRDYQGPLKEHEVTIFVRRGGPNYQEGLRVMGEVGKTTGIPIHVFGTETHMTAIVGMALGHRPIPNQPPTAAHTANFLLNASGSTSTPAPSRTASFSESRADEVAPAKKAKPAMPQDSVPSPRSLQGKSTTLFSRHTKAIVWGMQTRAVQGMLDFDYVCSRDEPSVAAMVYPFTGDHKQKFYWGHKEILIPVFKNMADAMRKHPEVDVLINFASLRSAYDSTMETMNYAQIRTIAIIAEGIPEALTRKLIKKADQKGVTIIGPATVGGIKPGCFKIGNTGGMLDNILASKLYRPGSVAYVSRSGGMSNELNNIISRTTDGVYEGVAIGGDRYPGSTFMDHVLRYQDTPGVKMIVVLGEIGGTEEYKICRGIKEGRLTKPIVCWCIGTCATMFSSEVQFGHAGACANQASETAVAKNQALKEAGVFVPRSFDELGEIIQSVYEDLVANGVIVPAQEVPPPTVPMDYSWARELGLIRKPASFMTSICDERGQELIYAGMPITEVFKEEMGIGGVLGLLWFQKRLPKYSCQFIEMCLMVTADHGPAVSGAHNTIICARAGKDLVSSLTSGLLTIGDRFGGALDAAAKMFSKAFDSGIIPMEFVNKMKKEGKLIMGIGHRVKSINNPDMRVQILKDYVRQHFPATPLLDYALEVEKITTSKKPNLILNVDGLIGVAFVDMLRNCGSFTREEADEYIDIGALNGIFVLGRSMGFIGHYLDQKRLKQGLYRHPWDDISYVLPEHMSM

[2] = Inhibition of duck liver FASN; parameters: species or system Anas platyrhynchos
[3] = Inhibition of duck liver FASN ketoreductase activity; parameters: species or system Anas platyrhynchos
Fatty acid synthase [4] = molecular target: T2, Fatty acid synthase (Gallus gallus, UniProt P12276); assay: Inhibition of chicken liver FASN
T2 sequence (P12276 whole entry): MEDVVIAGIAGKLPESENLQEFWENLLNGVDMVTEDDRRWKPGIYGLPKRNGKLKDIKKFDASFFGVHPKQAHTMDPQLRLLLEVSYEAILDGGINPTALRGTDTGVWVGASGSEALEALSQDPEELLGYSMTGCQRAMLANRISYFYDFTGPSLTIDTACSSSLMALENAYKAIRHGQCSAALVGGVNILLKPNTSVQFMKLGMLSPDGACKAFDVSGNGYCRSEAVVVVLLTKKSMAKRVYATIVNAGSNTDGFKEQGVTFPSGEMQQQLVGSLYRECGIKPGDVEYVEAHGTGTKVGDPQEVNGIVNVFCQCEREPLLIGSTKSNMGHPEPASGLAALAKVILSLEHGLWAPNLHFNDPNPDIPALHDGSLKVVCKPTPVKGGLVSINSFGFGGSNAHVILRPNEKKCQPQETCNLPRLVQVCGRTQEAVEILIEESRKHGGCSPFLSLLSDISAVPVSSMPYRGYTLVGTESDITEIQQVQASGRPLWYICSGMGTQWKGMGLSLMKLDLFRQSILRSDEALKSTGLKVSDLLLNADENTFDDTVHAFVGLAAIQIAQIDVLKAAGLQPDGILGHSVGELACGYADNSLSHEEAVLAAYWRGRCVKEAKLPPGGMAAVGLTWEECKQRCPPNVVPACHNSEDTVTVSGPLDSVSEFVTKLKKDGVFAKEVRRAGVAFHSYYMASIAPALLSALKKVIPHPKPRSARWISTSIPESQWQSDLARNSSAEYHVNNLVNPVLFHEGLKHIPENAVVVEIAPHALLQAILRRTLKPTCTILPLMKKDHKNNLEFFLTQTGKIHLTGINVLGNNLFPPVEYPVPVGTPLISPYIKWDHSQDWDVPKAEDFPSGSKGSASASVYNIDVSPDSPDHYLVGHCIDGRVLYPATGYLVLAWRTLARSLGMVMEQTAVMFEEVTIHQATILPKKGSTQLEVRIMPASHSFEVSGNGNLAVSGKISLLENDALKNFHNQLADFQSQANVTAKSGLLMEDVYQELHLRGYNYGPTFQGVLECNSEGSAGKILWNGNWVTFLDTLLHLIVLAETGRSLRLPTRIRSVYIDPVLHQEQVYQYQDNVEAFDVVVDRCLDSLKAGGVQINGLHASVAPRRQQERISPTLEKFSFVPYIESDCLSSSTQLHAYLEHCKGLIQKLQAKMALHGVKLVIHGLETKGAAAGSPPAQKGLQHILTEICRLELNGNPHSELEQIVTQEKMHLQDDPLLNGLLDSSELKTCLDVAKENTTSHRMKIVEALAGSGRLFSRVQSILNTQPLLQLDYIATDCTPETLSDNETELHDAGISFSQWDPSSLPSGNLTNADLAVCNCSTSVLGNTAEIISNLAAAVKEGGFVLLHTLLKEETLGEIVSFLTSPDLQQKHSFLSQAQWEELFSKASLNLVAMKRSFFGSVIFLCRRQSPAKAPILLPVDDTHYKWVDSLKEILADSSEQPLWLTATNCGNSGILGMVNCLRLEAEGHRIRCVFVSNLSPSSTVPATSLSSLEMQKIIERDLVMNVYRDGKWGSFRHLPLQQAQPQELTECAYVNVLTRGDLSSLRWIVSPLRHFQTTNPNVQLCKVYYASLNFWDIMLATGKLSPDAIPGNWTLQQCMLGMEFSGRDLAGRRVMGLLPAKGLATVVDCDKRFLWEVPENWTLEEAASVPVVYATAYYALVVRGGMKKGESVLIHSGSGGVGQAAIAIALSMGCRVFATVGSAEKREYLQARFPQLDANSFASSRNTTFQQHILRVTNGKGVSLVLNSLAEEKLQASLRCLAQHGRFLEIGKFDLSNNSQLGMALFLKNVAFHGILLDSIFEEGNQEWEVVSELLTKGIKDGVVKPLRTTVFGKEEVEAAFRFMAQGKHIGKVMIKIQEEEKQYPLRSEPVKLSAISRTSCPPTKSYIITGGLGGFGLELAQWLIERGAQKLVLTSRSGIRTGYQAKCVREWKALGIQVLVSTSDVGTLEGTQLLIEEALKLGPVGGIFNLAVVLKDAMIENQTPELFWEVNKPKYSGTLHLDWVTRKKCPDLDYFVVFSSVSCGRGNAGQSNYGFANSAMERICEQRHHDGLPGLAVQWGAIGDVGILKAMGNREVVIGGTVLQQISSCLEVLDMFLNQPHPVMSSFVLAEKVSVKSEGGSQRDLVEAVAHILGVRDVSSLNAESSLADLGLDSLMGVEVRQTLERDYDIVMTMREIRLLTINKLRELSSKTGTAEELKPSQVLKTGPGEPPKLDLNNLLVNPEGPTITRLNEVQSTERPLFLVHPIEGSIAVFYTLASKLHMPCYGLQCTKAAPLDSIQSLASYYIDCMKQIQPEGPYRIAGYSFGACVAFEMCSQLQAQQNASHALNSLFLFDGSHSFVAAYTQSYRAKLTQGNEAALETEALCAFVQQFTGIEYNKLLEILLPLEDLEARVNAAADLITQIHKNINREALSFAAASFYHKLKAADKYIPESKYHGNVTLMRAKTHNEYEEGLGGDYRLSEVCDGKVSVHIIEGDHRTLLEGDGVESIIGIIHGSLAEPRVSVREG

Fatty acid synthase [5] = molecular target: T3, Fatty acid synthase (Homo sapiens, UniProt P49327); assay: Inhibition of FASN in human A375 cells; type: cell-based, A-375
T3 sequence (P49327 whole entry): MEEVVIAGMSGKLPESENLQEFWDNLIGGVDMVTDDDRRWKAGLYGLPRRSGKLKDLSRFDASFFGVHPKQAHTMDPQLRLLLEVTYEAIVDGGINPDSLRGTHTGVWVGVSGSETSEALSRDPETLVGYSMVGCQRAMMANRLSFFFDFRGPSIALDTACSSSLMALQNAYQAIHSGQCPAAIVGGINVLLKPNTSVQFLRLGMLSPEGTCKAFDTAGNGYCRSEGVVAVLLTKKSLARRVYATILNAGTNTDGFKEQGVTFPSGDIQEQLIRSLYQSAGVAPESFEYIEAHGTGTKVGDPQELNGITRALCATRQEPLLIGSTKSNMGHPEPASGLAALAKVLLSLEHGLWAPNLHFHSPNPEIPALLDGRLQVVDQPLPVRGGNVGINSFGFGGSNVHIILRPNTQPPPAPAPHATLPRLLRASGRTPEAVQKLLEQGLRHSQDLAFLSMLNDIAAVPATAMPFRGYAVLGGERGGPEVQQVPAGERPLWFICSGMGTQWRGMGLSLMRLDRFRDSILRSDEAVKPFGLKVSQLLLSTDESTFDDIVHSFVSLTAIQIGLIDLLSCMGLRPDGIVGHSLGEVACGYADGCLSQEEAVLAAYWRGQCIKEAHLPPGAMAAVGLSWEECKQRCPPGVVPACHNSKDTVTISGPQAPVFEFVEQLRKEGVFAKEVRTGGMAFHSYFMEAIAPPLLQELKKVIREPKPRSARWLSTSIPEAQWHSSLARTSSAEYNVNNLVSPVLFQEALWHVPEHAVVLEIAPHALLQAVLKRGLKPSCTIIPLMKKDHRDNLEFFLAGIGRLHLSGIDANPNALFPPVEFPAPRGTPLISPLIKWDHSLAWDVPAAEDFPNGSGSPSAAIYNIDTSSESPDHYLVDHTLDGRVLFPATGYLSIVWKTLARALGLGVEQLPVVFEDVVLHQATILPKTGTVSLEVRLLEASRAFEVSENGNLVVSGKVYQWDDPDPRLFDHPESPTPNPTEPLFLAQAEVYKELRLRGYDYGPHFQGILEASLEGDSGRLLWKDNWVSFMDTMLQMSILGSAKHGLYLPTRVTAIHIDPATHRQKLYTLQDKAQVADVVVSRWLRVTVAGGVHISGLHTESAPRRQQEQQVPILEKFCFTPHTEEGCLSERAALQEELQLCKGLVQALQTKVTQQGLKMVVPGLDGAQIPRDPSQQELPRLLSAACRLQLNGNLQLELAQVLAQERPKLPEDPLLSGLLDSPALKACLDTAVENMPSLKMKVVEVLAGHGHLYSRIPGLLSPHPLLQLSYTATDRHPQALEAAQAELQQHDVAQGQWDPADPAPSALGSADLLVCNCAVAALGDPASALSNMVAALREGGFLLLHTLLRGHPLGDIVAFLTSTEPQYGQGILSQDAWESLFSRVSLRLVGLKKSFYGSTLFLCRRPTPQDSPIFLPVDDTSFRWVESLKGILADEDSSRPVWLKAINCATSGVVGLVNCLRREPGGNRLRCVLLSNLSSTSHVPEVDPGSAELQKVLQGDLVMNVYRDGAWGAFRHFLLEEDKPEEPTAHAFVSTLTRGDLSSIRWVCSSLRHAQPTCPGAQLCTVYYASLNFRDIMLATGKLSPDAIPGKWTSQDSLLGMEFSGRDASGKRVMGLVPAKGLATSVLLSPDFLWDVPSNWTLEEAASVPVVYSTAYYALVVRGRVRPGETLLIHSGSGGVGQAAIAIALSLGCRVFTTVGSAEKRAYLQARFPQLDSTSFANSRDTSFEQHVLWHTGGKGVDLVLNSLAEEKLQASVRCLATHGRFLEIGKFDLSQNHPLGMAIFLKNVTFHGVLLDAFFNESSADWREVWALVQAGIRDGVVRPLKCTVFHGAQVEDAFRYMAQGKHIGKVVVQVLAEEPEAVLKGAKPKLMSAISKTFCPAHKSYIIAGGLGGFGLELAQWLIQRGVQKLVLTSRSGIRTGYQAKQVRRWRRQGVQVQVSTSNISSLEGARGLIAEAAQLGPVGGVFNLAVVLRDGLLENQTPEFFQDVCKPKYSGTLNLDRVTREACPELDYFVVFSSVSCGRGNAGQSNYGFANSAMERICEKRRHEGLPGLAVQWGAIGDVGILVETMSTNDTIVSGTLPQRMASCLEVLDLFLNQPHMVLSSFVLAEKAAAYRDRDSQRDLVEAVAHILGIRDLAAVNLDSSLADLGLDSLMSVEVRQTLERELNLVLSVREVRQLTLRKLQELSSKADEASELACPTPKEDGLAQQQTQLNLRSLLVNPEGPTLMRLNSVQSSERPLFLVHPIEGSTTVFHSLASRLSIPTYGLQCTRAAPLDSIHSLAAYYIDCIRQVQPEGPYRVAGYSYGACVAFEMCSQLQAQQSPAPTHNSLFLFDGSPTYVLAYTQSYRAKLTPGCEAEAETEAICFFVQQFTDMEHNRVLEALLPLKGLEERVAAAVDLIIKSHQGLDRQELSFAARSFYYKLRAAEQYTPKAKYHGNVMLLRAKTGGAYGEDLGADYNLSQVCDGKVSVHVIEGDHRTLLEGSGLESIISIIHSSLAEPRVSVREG

Fatty acid synthase [6] = molecular target: T2, Fatty acid synthase; assay: Inhibition of chicken liver FASN ketoreductase activity
HepG2 = assay: Cytotoxicity against human HepG2 cells by MTT assay; type: functional, cell-based
ATP-citrate synthase [7] = molecular target: T4, ATP-citrate synthase (Rattus norvegicus, UniProt P16638)
T4 sequence (P16638 whole entry): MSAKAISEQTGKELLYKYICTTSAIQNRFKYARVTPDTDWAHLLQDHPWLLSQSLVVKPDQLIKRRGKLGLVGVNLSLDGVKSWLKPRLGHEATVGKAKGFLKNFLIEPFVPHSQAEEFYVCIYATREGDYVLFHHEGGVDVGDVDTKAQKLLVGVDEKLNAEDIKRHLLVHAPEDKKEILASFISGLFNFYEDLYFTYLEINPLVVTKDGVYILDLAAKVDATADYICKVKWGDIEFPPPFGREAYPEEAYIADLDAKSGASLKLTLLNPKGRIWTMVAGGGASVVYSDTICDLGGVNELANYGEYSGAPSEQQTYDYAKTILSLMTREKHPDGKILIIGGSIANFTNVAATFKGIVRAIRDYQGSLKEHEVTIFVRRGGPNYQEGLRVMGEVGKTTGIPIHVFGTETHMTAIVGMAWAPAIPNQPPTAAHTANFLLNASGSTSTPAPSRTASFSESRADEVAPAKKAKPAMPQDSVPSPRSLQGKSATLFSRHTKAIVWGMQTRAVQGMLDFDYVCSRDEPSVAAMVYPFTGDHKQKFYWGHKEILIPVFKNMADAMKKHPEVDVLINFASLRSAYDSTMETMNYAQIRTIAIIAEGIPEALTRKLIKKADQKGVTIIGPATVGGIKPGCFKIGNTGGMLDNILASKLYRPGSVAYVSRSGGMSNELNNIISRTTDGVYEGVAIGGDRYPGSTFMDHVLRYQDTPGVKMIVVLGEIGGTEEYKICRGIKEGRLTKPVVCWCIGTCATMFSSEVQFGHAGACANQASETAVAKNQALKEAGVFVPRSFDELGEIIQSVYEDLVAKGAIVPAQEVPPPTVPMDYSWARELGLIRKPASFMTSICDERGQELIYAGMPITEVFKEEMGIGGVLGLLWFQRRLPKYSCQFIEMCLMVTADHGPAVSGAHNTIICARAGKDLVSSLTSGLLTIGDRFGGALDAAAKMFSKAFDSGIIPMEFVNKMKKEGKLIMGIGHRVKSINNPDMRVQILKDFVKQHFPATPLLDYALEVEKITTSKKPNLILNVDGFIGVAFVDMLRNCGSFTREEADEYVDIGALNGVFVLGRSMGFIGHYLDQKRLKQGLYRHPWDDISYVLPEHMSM
Description: Inhibition of rat liver ACLY

[8] = Inhibition of Ustilago maydis recombinant ACC expressed in Escherichia coli BL21(DE3) using acetyl coA as substrate and [14C]NaHCO3 incubated for 10 mins prior to substrate addition by liquid scintillation counting; parameters: species or system Mycosarcoma maydis
[9] = Inhibition of acetyl coA carboxylase in human MCF7 cells; type: cell-based
Fatty acid synthase [10] = molecular target: T3, Fatty acid synthase; assay: Inhibition of human recombinant FASN thioesterase domain

Compound: C/C=C/C/C=C/CCC(=O)[C@H]1O[C@H]1C(N)=O [CERULENIN]
IC50 (Fatty acid synthase [5]): 21.9 µM

Compound: O=C(O[C@@H]1Cc2c(O)cc(O)cc2O[C@@H]1c1cc(O)c(O)c(O)c1)c1cc(O)c(O)c(O)c1 [EPIGALOCATECHIN GALLATE]
IC50 (Fatty acid synthase [4]): 52 µM | IC50 (Fatty acid synthase [6]): 100 µM

Compound: O=C(/C=C/c1ccc(O)cc1)c1ccc(O)cc1O [ISOLIQUIRITIGENIN]
IC50 [2]: 8.8 µM | IC50 [3]: 141 µM

Compound: O=c1c(O)c(-c2ccc(O)cc2)oc2cc(O)cc(O)c12 [KAEMPFEROL]
IC50 (HepG2): > 400 µM | IC50 [2]: 10.4 µM

Compound: O=c1cc(-c2ccc(O)c(O)c2)oc2cc(O)cc(O)c12 [LUTEOLIN]
IC50 (HepG2): 71.2 µM | IC50 [2]: 2.52 µM

Compound: O=c1c(O)c(-c2ccc(O)cc2O)oc2cc(O)cc(O)c12 [MORIN]
IC50 [2]: 2.3 µM | IC50 [3]: 26 µM

Compound: CC(Cc1ccc(O)c(O)c1)C(C)Cc1ccc(O)c(O)c1 (centres undefined) [NORDIHYDROGUAIARETIC ACID]
IC50 [2]: 9.3 µM | IC50 [3]: 427 µM

Compound: O=c1c(O)c(-c2ccc(O)c(O)c2)oc2cc(O)cc(O)c12 [QUERCETIN]
IC50 (HepG2): 30.9 µM | IC50 [2]: 4.29 µM

Compound: Oc1ccc(/C=C/c2cc(O)cc(O)c2)cc1 [RESVERATROL]
IC50 [2]: 8.5 µM | IC50 [3]: 120 µM

Compound: CO[C@H]1CCCC[C@@H](c2ccccc2)OC(=O)[C@@H](C)[C@@]2(O)O[C@H]([C@@H](C)[C@H](O)[C@H]2OC)[C@@H](C)/C=C/[C@H]1OC [SORAPHEN A]
Ki [8]: 2.1 nM

Compound: H-KNPQLR-OH
IC50 (Fatty acid synthase [6]): 80 µM

The next lines start with results.

Ki (ATP-citrate synthase [1]): 580 nM
Compound: Cc1cn(-c2cc(Cl)ccc2CCCCCC[C@H](O)C[C@@](O)(CC(=O)O)C(=O)O)cc1C (stereo in doubt; 134)

Ki (ATP-citrate synthase [1]): 340 nM
Compound: Cc1cn(-c2cc(Cl)ccc2CCCCCC[C@H](O)C[C@@](O)(CC(=O)O)C(=O)O)cc1C (stereo in doubt; 135)

IC50 [2]: 3.4 µM | IC50 [3]: 30.1 µM
Compound: O=C(O[C@@H]1Cc2c(O)cc(O)cc2O[C@H]1c1ccc(O)c(O)c1)c1cc(O)c(O)c(O)c1 [(-)-CATECHINGALLATE]

IC50 (Fatty acid synthase [4]): 6.15 µM
Compound: O=c1c(O[C@@H]2O[C@@H](CO)[C@H](O)[C@H]2O)c(-c2ccc(O)c(O)c2)oc2cc(O)cc(O)c12 [AVICULARIN]

IC50 [2]: 18.8 µM
Compound: O=c1c(O)c(-c2ccc(O)c(O)c2)oc2cc(O)ccc12 [FISETIN]
IC50 (HepG2): > 400 µM

IC50 (ATP-citrate synthase [7]): 7 µM
Compound: O=C1C(c2ccc(O)c(O)c2)=c2c(c3c(n2CCc2ccc(O)cc2)=C(c2ccc(O)c(O)c2)C(=O)c2cc(O)c(O)cc2-3)-c2cc(O)c(O)cc21 [PURPURONE]

IC50 [9]: 12.3 µM
Compound: CCCCCCCCCCCCCCOc1ccc(C(=O)O)o1 [TOFA]

IC50 (Fatty acid synthase [4]): 13.1 µM | IC50 (Fatty acid synthase [6]): 59.3 µM
Compound: C[C@H]1[C@H](C)CC[C@]2(C(=O)O)CC[C@]3(C)C(=CC[C@@H]4[C@@]5(C)CC[C@H](O)C(C)(C)[C@@H]5CC[C@]43C)[C@H]12 [URSOLIC ACID]

IC50 (Fatty acid synthase [10]): 10 µM | IC50 (Fatty acid synthase [6]): 27 µM
Compound: H-EITPEKNPQLR-OH

IC50 (Fatty acid synthase [10]): 11 µM | IC50 (Fatty acid synthase [6]): 16 µM
Compound: H-RKQEEDEDEEQQRE-OH
